This note sets out measurements from patent publication US12310364B2, “Safened compositions comprising pyridine carboxylate herbicides and cloquintocet” (Corteva Agriscience LLC, priority 2018, dated 2025).

The test system of this experiment is Matricaria chamomilla (wild chamomile), MATCH. The experiment can be described thus: Greenhouse postemergence trial, visual injury on wild chamomile. Type of experiment: in vivo. The note with it: herbicide alone 20 g/ha. The procedure: Greenhouse Trial Methodology-Evaluation of Postemergence Herbicidal […] in Crops […] When required to ensure good germination and healthy plants, a fungicide treatment and/or other chemical or physical treatment was applied. The plants were grown for 7-36 days (d) in a greenhouse with an approximate 14-hour (h) photoperiod which was maintained at about 23° C. during the day and 22° C. during the night. Nutrients and water were added on a regular basis and supplemental lighting was provided with overhead metal halide 1000-Watt lamps as necessary. The plants were employed for testing when they reached the second or third true leaf stage. Emulsifiable concentrates of each of each pyridine carboxylate herbicide (Compound A or Compound B) were prepared at 100 grams acid equivalent per liter (g ae/L). […] The concentrated stock solutions were further diluted with an aqueous mixture of 1.25% […] or MSO® Concentrate with LECI-TECH® to obtain stock solutions at reduced application rates for each herbicide. Spray solutions of the herbicide combinations (Compound A or Compound B plus safener) were prepared by adding weighed amounts or aliquots of the safener to the stock solutions of Compound A or Compound B to form 12-mL spray solutions in two-way combinations. […] Control plants were sprayed in the same manner with the solvent blank. All herbicide (component a) application rates are given as “g ae/ha” and all safener (component b) application rates are given as “g ai/ha.” The treated plants and control plants were placed in a greenhouse as described above and watered by sub-irrigation to prevent wash-off of the test compounds.

SMILES strings stand for the structures.

For the compound `N#CCOC(=O)c1nc(-c2ccc3cc[nH]c3c2F)c(F)c(N)c1Cl` [Compound A, cyanomethyl 4-amino-3-chloro-5-fluoro-6-(7-fluoro-1H-indol-6-yl)pyridine-2-carboxylate], the “% visual injury, Ob” value was found to be 50%.
